# Patent publication US20250136576A1, “Heterocyclic Compounds and Uses Thereof” (ACEA Therapeutics, Inc., priority 2021, published 2025)
# Test system: KM12-luc cells
# Assay: Cell proliferation and growth inhibition assay (CCK-8) in KM12-luc
# Assay type: cell-based
# Details: KM12-Luc, 72 h, KM12-luc cells, treated with test compounds for 72 hrs, CCK-8 viability; read-out: NTRK IC50 in KM12-luc
# Outline: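 Cells were grown at 37 °C, 5% CO2 with 10% FBS: MV-4-11 in IMDM, H1975 in RPMI 1640, KM12-luc in DMEM. Viability was read by CCK-8 (1-4 hrs reagent incubation, absorbance at OD450). IC50 came from a non-linear sigmoidal dose-response fit.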
row,SMILES,IC50 [nM]
1,"CC(=O)Nc1cc(Nc2nc(-c3c[nH]c4ccccc34)ncc2C(F)(F)F)cc(F)c1N(C)CCN(C)C [Compound 299b, N-(5-((2-(1H-indol-3-yl)-5-(trifluoromethyl)pyrimidin-4-yl)amino)-2-((2-(dimethylamino)ethyl)(methyl)amino)-3-fluorophenyl)acetamide]",3380
2,"CC(=O)Nc1cc(Nc2nc(-c3c[nH]c4ccccc34)c3cc[nH]c3n2)ccc1N(C)CCN(C)C [Compound 189, N-(5-((4-(1H-indol-3-yl)-7H-pyrrolo[2,3-d]pyrimidin-2-yl)amino)-2-((2-(dimethylamino)ethyl)(methyl)amino)phenyl)acetamide]",28.7
3,"CC(=O)Nc1cc(Nc2ncc(Cl)c(-c3c[nH]c4c(F)cccc34)n2)ccc1N1CC[C@H](N(C)C)C1 [Compound S-409, (S)—N-(5-((5-chloro-4-(7-fluoro-1H-indol-3-yl)pyrimidin-2-yl)amino)-2-(3-(dimethylamino)pyrrolidin-1-yl)phenyl)acetamide]",24.6
4,"CCN(CCN(C)C)c1ccc(Nc2nc(OC)c(OC)c(-c3cn(C)c4ccccc34)n2)cc1NC(C)=O [Compound 291c, N-(5-((4,5-dimethoxy-6-(1-methyl-1H-indol-3-yl)pyrimidin-2-yl)amino)-2-((2-(dimethylamino)ethyl) (ethyl)amino)phenyl) acetamide]",2050
5,"CC(=O)Nc1cc(Nc2ncc(F)c(-c3cn(C)c4cc(F)c(F)cc34)n2)ccc1N(C)CCN(C)C [Compound 268, N-(5-((4-(5,6-difluoro-1-methyl-1H-indol-3-yl)-5-fluoropyrimidin-2-yl)amino)-2-((2-(dimethylamino)ethyl)(methyl)amino)phenyl)acetamide]",784
6,"CCN(C(=O)CCN(C)C)c1ccc(Nc2ncc(Cl)c(-c3c[nH]c4ccccc34)n2)cc1NC(C)=O [Compound 451, N-(2-acetamido-4-((5-chloro-4-(1H-indol-3-yl)pyrimidin-2-yl)amino)phenyl)-3-(dimethylamino)-N-ethylpropanamide]",14.2
7,"CC(=O)Nc1cc(Nc2ncc(C(F)(F)F)c(-c3cn(C)c4ccccc34)n2)ccc1OCCN(C)C [Compound 315, N-(2-(2-(dimethylamino)ethoxy)-5-((4-(1-methyl-1H-indol-3-yl)-5-(trifluoromethyl)pyrimidin-2-yl)amino)phenyl)acetamide]",85.1
8,"CC(=O)Nc1cc(Nc2nc(-c3cn(C)c4ccccc34)c3cc[nH]c3n2)cc(F)c1N(C)CCN(C)C [Compound 190, N-(2-((2-(dimethylamino)ethyl)(methyl)amino)-3-fluoro-5-((4-(1-methyl-1H-indol-3-yl)-7H-pyrrolo[2,3-d]pyrimidin-2-yl)amino)phenyl)acetamide]",60.4
9,"CCC(=O)Nc1cccc(Nc2ncc(Cl)c(Nc3ccc(N4CCNCC4)cc3OC)n2)c1 [Compound 160, N-(3-((5-chloro-4-((2-methoxy-4-(piperazin-1-yl)phenyl)amino)pyrimidin-2-yl)amino)phenyl)propionamide]",210
10,"CC(=O)Nc1cc(Nc2ncc(Cl)c(-c3cn(C)c4ccccc34)n2)ccc1NC(=O)CN(C)C [Compound 407, N-(2-acetamido-4-((5-chloro-4-(1-methyl-1H-indol-3-yl)pyrimidin-2-yl)amino)phenyl)-2-(dimethylamino)acetamide]",44.4
11,"CC(=O)Nc1cc(Nc2ncc(F)c(-c3cn(C)c4cc(F)ccc34)n2)ccc1N(C)CCN(C)C [Compound 267, N-(2-((2-(dimethylamino)ethyl)(methyl)amino)-5-((5-fluoro-4-(6-fluoro-1-methyl-1H-indol-3-yl)pyrimidin-2-yl)amino)phenyl)acetamide]",303
12,"CC(=O)Nc1cc(Nc2ncc(C(F)(F)F)c(-c3cn(C)c4ccc(F)cc34)n2)ccc1N(C)CCN(C)C [Compound 325, N-(2-((2-(dimethylamino)ethyl)(methyl)amino)-5-((4-(5-fluoro-1-methyl-1H-indol-3-yl)-5-(trifluoromethyl)pyrimidin-2-yl)amino)phenyl)acetamide]",39.4
13,"CC(=O)Nc1cc(Nc2ncc(C(F)(F)F)c(-c3cn(C)c4c(F)cccc34)n2)ccc1N(C)CCN(C)C [Compound 346, N-(2-((2-(dimethylamino)ethyl)(methyl)amino)-5-((4-(7-fluoro-1-methyl-1H-indol-3-yl)-5-(trifluoromethyl)pyrimidin-2-yl)amino)phenyl)acetamide]",105
14,"CCN(CCN(C)C)c1ccc(Nc2nc(-c3cn(C)c4ccccc34)c3cc[nH]c3n2)cc1N [Compound 211, N^1-(2-(dimethylamino)ethyl)-N^1-ethyl-N^4-(4-(1-methyl-1H-indol-3-yl)-7H-pyrrolo[2,3-d]pyrimidin-2-yl)benzene-1,2,4-triamine]",40.3
15,"COCCCN(C)c1cc(N2CCN(C)CC2)ccc1C(=O)Nc1c[nH]c2cnc(Nc3cc(F)cc(F)c3)nc12 [Compound 494, N-(2-((3,5-difluorophenyl)amino)-5H-pyrrolo[3,2-d]pyrimidin-7-yl)-2-((3-methoxypropyl)(methyl)amino)-4-(4-methylpiperazin-1-yl)benzamide]",> 1000
16,"CCN(CCN(C)C)c1c(F)cc(Nc2nc(-c3cn(C)c4ccccc34)c3occc3n2)cc1NC(C)=O [Compound 256d, N-(2-((2-(dimethylamino)ethyl)(ethyl)amino)-3-fluoro-5-((4-(1-methyl-1H-indol-3-yl)furo[3,2-d]pyrimidin-2-yl)amino)phenyl)acetamide]",1000
17,"CN(C)[C@H]1CCN(c2ccc(Nc3ncc(C(F)(F)F)c(-c4cn(C)c5c(F)cccc45)n3)cc2N)C1 [Compound S-354, (S)-4-(3-(dimethylamino)pyrrolidin-1-yl)-N^1-(4-(7-fluoro-1-methyl-1H-indol-3-yl)-5-(trifluoromethyl)pyrimidin-2-yl)benzene-1,3-diamine]",56.3
18,"Cc1nc2cc(Nc3ncc(C(F)(F)F)c(-c4cn(C)c5c(F)cccc45)n3)ccc2n1CCN(C)C [Compound 351, 1-(2-(dimethylamino)ethyl)-N-(4-(7-fluoro-1-methyl-1H-indol-3-yl)-5-(trifluoromethyl)pyrimidin-2-yl)-2-methyl-1H-benzo[d]imidazol-5-amine]",172
19,"CN(C)CCN(C)c1ccc(Nc2ncc(Cl)c(-c3cn(C)c4c(F)cccc34)n2)cc1N [Compound 417, N^4-(5-chloro-4-(7-fluoro-1-methyl-1H-indol-3-yl)pyrimidin-2-yl)-N^1-(2-(dimethylamino)ethyl)-N^1-methylbenzene-1,2,4-triamine]",94.2
20,"Cc1cccc2c(-c3nc(Nc4ccc(N5CC[C@H](N(C)C)C5)c(N)c4)ncc3C(F)(F)F)c[nH]c12 [Compound S-367, (S)-4-(3-(dimethylamino)pyrrolidin-1-yl)-N^1-(4-(7-methyl-1H-indol-3-yl)-5-(trifluoromethyl)pyrimidin-2-yl)benzene-1,3-diamine]",4.6
21,"CN(C)CCN(C)c1ccc(Nc2ncc(C(F)(F)F)c(-c3c[nH]c4cccc(F)c34)n2)cc1N [Compound 317, N^1-(2-(dimethylamino)ethyl)-N^4-(4-(4-fluoro-1H-indol-3-yl)-5-(trifluoromethyl)pyrimidin-2-yl)-N^1-methylbenzene-1,2,4-triamine]",24.9
22,"CCC(=O)Nc1cccc(Nc2ncc(Cl)c(Nc3ccc(N4CCN(C(C)=O)CC4)cc3OC)n2)c1 [Compound 162, N-(3-((4-((4-(4-acetylpiperazin-1-yl)-2-methoxyphenyl)amino)-5-chloropyrimidin-2-yl)amino)phenyl)propionamide]",129
23,"CC(=O)Nc1cc(Nc2ncc(C(F)(F)F)c(-c3cn(C)c4c(C)cccc34)n2)ccc1OCCN(C)C [Compound 372, N-(5-((4-(1,7-dimethyl-1H-indol-3-yl)-5-(trifluoromethyl)pyrimidin-2-yl)amino)-2-(2-(dimethylamino)ethoxy)phenyl)acetamide]",30.2
24,"CC(=O)Nc1cc(Nc2ncc(C(F)(F)F)c(-c3c[nH]c4c(F)cccc34)n2)ccc1N(CCN(C)C)C(C)=O [Compound 341, N-(2-acetamido-4-((4-(7-fluoro-1H-indol-3-yl)-5-(trifluoromethyl)pyrimidin-2-yl)amino)phenyl)-N-(2-(dimethylamino)ethyl)acetamide]",248

# Same assay, conditions: KM12-Luc, 72 h, read-out: NTRK IC50 in KM12-luc
row,SMILES,IC50 [nM]
1,"CCNc1cc(Nc2nc(-c3cn(C)c4ccccc34)c3cc[nH]c3n2)ccc1N(C)CCN(C)C [Compound 205b, N^1-(2-(dimethylamino)ethyl)-N^2-ethyl-N1-methyl-N^4-(4-(1-methyl-1H-indol-3-yl)-7H-pyrrolo[2,3-d]pyrimidin-2-yl)benzene-1,2,4-triamine]",304

# Same assay, conditions: KM12-luc cells, treated with test compounds for 72 hrs, CCK-8 viability; read-out: NTRK IC50 in KM12-luc
row,SMILES,IC50 [nM]
1,"CC(=O)Nc1cccc(Oc2nc(Nc3ccc4c(c3)[N+](C)(C)CCN4C)nc3[nH]ccc23)c1 [Compound 181b, 7-((4-(3-acetamidophenoxy)-7H-pyrrolo[2,3-d]pyrimidin-2-yl)amino)-1,1,4-trimethyl-1,2,3,4-tetrahydroquinoxalin-1-ium]",> 10000
2,"COc1cccc2c(-c3nc(Nc4ccc(N5CC[C@@H](N(C)C)C5)c(N)c4)ncc3Cl)cn(C)c12 [Compound R-414, (R)—N^1-(5-chloro-4-(7-methoxy-1-methyl-1H-indol-3-yl)pyrimidin-2-yl)-4-(3-(dimethylamino)pyrrolidin-1-yl)benzene-1,3-diamine]",12.4
3,"CC(=O)Nc1cc(Nc2nc(-c3cn(C)nc3C)c3cc[nH]c3n2)ccc1N(C)CCN(C)C [Compound 255a, N-(5-(4-(1,3-dimethyl-1H-pyrazol-4-yl)-7H-pyrrolo[2,3-d]pyrimidin-2-ylamino)-2-((2-(dimethylamino)ethyl)(methyl)amino)phenyl)acetamide]",246
4,"CC(=O)Nc1cc(Nc2ncc(F)c(-c3c[nH]c4ccc(C)cc34)n2)ccc1N(C)CCN(C)C [Compound 269, N—N-(2-((2-(dimethylamino)ethyl)(methyl)amino)-5-((5-fluoro-4-(5-methyl-1H-indol-3-yl)pyrimidin-2-yl)amino)phenyl)acetamide]",112
